The text below walks through data of patent publication US20150343007A1, “EDIBLE COMPOSITION COMPRISING AN EXTRACT OF INULA RACEMOSA AND NARINGIN” (CONOPCO, INC. D/B/A UNILEVER, priority 2012, published 2015).

For this experiment, the target named is T1, human recombinant Dipeptidyl peptidase-IV (DPP-IV) enzyme (Homo sapiens, UniProt P27487).
T1 construct: purchased PROSPEC ISRAEL ENZ 375
T1 sequence (P27487 whole entry): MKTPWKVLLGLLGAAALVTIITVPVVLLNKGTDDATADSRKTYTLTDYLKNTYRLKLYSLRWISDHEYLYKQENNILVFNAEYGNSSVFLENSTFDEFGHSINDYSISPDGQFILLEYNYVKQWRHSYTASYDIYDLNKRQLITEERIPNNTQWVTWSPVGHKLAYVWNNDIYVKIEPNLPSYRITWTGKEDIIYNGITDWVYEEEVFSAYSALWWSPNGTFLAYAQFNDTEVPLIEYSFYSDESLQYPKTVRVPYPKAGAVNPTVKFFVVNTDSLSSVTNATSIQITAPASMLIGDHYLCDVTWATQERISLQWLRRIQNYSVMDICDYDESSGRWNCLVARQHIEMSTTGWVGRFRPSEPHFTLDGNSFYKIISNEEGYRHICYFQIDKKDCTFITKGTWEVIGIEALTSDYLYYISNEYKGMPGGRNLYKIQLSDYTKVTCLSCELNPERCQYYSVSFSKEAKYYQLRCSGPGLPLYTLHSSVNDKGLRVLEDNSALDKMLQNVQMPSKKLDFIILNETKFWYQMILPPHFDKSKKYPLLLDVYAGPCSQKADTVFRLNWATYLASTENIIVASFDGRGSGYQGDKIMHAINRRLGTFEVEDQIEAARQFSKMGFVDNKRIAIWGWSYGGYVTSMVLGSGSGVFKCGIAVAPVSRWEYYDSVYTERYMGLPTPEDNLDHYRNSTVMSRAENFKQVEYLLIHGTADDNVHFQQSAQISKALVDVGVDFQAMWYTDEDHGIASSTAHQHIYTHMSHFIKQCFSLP
Put plainly: Invitro DPP-4 Enzyme Assay (Gly-Pro p-NA substrate, absorbance at 405 nm). The format is biochemical. The following applies: 4 ng DPP-IV per well, 200 μl/well TRIS-HCl pH 8, 37° C., 1 hr; sample amounts (μg/well) per Table 1; Control 3 = 100% activity. On the procedure: A 96 well plate (NEST Biotechnology Co. Ltd, Cat No 701001) was taken. In each well of 96 well plate extract of Inula racemosa (as prepared above), Naringin (SIGMA, Cat. No: N1376) and the combination of extract of Inula racemosa and naringin were put in varied concentration as per Table 1. In each well, 4 ng of human recombinant Dipeptidyl peptidase-IV (DPP-IV) enzyme (PROSPEC ISRAEL, Cat. No. ENZ 375) was also added. After that, the final volume was made up to 200 μl/well using TRIS-HCl buffer of pH-8. The TRIS-HCl buffer was prepared by adding 2.42 g of TRIS (Tris hydroxyl methyl amino methane; Supplier: Sisco Research Laboratory ltd, Cat No 2044122) base, 0.372 g of EDTA (SIGMA, Cat No E6758) and 5.644 g of NaCl in 900 mL of autoclaved milli-Q water (Millipore® India) and stirred it till it get dissolved (˜30 minutes). After that the pH of the solution was adjusted to 8.0 using HCl acid and then the volume of the solution was made up to 1000 mL with autoclaved milli-Q water.
The enzyme and combinations of extract of Inula racemosa and naringin were mixed for 1 min using microplate reader (BIO-RAD LAB INDIA, Model No. 680) and incubated in an incubator (Thermo Scientific, Model 3111; conditions: at 37° C.) for 10 minutes. After that the enzymatic reaction was initiated by adding 10 μL/well of the 19 mM of substrate Glycine-Proline para nitroanilide (Gly-Pro p-NA) (this is equivalent to GLP-1). Gly-Pro-p NA is a universally accepted and commercially available substrate for the enzyme DPP-4, due to the lack of availability of commercially available chromogenic GLP-1. We have used Gly-Pro-p NA in the assay which is equivalent to GLP-1. […]
All the above reaction mixture was again incubated for 1 hr in the same incubator under the same condition. […] After this the absorbance was measured at a wavelength of 405 nm using microplate reader (BIO-RAD LAB INDIA, Model No. 680). […]
The % activities of the DPP-4 for the other samples were calculated using the following formula:
The % inhibitions by the samples were then calculated by subtracting the activity from 100.
A word on the % Inhibition: it is how much of the control response was suppressed. With `C[C@@H]1OC(OC2C(O)[C@H](O)C(CO)O[C@H]2Oc2cc(O)c3c(c2)O[C@H](c2ccc(O)cc2)CC3=O)[C@H](O)C(O)C1O` (single isomer, unassigned) [D, 4,5,7-Trihydroxyflavanone 7-rhamnoglucoside], the “% Inhibition” value is given as 18.11%.
The figure for `C[C@@H]1O[C@@H](O[C@H]2[C@H](Oc3cc(O)c4c(c3)O[C@H](c3ccc(O)cc3)CC4=O)O[C@H](CO)[C@@H](O)[C@@H]2O)[C@H](O)[C@H](O)[C@H]1O` [B, 4,5,7-Trihydroxyflavanone 7-rhamnoglucoside] is 18.54%.
`C[C@@H]1O[C@@H](O[C@H]2[C@H](Oc3cc(O)c4c(c3)O[C@H](c3ccc(O)cc3)CC4=O)O[C@H](CO)[C@@H](O)[C@@H]2O)[C@H](O)[C@H](O)[C@H]1O` [C, 4,5,7-Trihydroxyflavanone 7-rhamnoglucoside]: the “% Inhibition” value is listed as 18.43%.
